Experimental findings from patent publication US20030134342A1, “Binding-specific peptides, binding-specific carrier molecules, and uses thereof” (priority 2001, published 2003) are described below.

In assay [1] the test system is AML bone marrow cells. Kind of assay: Methylcellulose culture of AML bone marrow cells with peptides: proliferation (colonies) and differentiation (morphology). Conditions: patient numbers. In kind it is cell-based, human. How it is done: The effect of various peptides were analyzed for their biological activity on cells from a patient with acute myelogenous leukemia. The AML cells were cultured into a semi-solid medium of methylcellulose in order to determine the cloning efficiency and the differentiation of the cells. The various peptides were introduced into the semi-solid cell culture at a concentration of 10^−4 M (0.1 mM) peptide. After 14 days continuous incubation of the cell cultures, the morphology of the cells were analyzed. The data are shown in FIG. 7 for the cultures and show the percentage of immature cells in the culture (solid black), the percentage of small myeloblasts (solid white), the percentage of young cells (dark gray), and the relative percentage of monocytes to […] (light gray). The data regarding the biological response of AML bone marrow cells in the presence of the various peptides is shown in the table below.

For assay [2], the system named is CLL cells. Kind of assay: ELISA binding of phage displaying peptides to fixed cells: CLL cells. The conditions noted are these: in words. More on the design: species or system human. How it is done:
(§1) Preliminary experiments were performed to identify specific peptides by using cells from patients diagnosed with CLL, CML, and AML. The screening was performed by incubating the cells with the phage-peptides from the library. This incubation allows interaction between the peptide and the cell. The binding step was followed by several washes to eliminate free phage. Phage bound on the cell surface was eluted.
(§2) After the last round of binding with one cell type, the eluted phage was plated on an agar plate with the appropriate selection antibiotics. Each individual colony, corresponding to one individual peptide sequence, was amplified in a 96-well plate. After purification, these peptides were tested for their ability to bind to the cells in a microtiter plate by ELISA.
(§3) Each peptide was dispensed in a 96-well plate, containing cells previously fixed. Each colony was tested in a triplicate assay with the appropriate controls. After incubation of cells with an individual clone, the wells were washed to eliminate free phage. The bound phages were detected by using a monoclonal anti-M13 antibody/horseradish peroxidase (HRP) conjugate. After addition of the HRP substrate, the intensity of the coloration was measured by spectrophotometry. The light absorbance values (optical density values, O.D. values) are proportional to the number of phage bound to the cells.
(§4) The binding to various cell types were examined to evaluate the cellular specificity of the phage clones. For example, the clones from phage eluted from CLL patient cells were assayed for their ability to bind cells from an AML patient. Cells from normal donors (non-leukemic) were also evaluated to ascertain leukemia cell specificity.
(§5) Peripheral blood and bone marrow samples were collected from patients after informed consent. The samples were collected in tubes containing sodium citrate. Mononuclear cells were isolated by Ficoll-Hypaque density gradient separation and collection of the cells at a density of 1.077 g/mL.
(§6) The wells of a 96-well plate were pre-treated with 100 μL of poly-L-lysine (0.01 mg/mL in phosphate-buffered saline, 120 mM NaCl, 2.7 mM KCl, 10 mM phosphate buffer, “PBS”) for 2-16 hours at room temperature. After draining the poly-L-lysine from the wells, the excess poly-L-lysine was removed from the wells by flicking. The cells were washed with PBS, then suspended in PBS and diluted to a final concentration of […]. The cell suspension (200 μL; 250,000 cells) were added to each well needed for the assay.
(§7) The plates were centrifuged at 500 g for about 5 minutes in a microplate carrying centrifuge when available. The cells were fixed to the wells through the addition of glutaraldehyde (100 μL of 0.5%) and incubating at room temperature for about an hour. The glutaraldehyde was removed and the cell-coated wells washed once with PBS. Alternatively, the cells were permitted to settle to the well bottoms for about 4 hours at 37° C., and the glutaraldehyde fixative was added after removing the PBS.
(§8) A glycine solution (200 μl of 0.1 M glycine in PBS) containing bovine serum albumin (BSA; 1%) was added to the wells and permitted to incubate for 30 minutes to block excess glutaraldehyde. The glycine was removed, and the cell-coated wells washed once with PBS. A sodium pyrophosphate solution (200 μL of 0.3 mg/mL NaPPi) was added to the wells and incubated for an hour at room temperature to neutralize lysine charges. The pyrophosphate solution was removed and the wells washed once with PBS. Multiwell microtiter plates with cell-coated wells were stored at 4° C. with fresh PBS solution in the coated wells.
(§9) The cells to be studied for binding were suspended in PBS and adsorbed onto to a poly-L-lysine pretreated 96-well plate and kept at 4° C. The PBS was removed from the wells and an H2O2 solution in PBS (6% H2O2 in 200 μL/well) was added. […]
On the technique in general: An ELISA detects its analyte on a solid surface through an enzyme-linked reagent.

Assay [3] concerns AML cells. Kind of assay: ELISA binding of phage displaying peptides to fixed cells: AML cells. More on the design: species or system human. Conditions: in words. As for the experimental part:
as §1, §2, §3, §4, §5, §6, §7, §8, §9

In assay [4] the test system is CD34+ cells. In words: ELISA binding of phage displaying peptides to fixed cells: CD34+ cells. Conditions: in words. More on the design: species or system human. As for the experimental part: as §1, §2
(§10) Each peptide was dispensed in a 96-well plate, containing cells previously fixed. […] The bound phages were detected by using a monoclonal anti-M13 antibody/horseradish peroxidase (HRP) conjugate. After addition of the HRP substrate, the intensity of the coloration was measured by spectrophotometry. The light absorbance values (optical density values, O.D. values) are proportional to the number of phage bound to the cells.
(§11) The binding to various cell types were examined to evaluate the cellular specificity of the phage clones. […] Cells from normal donors (non-leukemic) were also evaluated to ascertain leukemia cell specificity. […]

In assay [5] the test system is CML cells. Kind of assay: ELISA binding of phage displaying peptides to fixed cells: CML cells. More on the design: species or system human. Conditions: in words. How it is done: as §1, §2, §3, §4, §5, §6, §7, §8, §9
Assay [6] relates to normal bone marrow cells. Kind of assay: ELISA binding of phage displaying peptides to fixed cells: normal bone marrow. The conditions noted are these: in words. Details: species or system human. How it is done:
as §1, §2, §10, §11

The test system of assay [7] is cord blood cells. In words: ELISA binding of phage displaying peptides to fixed cells: cord blood cells. Conditions: in words. More on the design: species or system human. As for the experimental part:
as §1, §2, §10, §11

CIEETARKGC [A2 11-24]: the “Activation of Differentiation” value in assay [1] is recorded as 3. In addition, the “binding of phage displaying the peptide to CLL cells” value in assay [2] is given as “not”. Also, the “binding of phage displaying the peptide to AML cells” value (“binding … to AML cells” for short) in assay [3] is “bind”. In assay [4], the “binding of phage displaying the peptide to CD34+ cells” value is on record as “bind”. The “binding of phage displaying the peptide to CML cells” value in assay [5] is “bind”.
For KRGIHPES [B3 9-1-01 no Cys], the “binding … to AML cells” value in assay [3] was “not”. Moreover, in assay [6], the “binding of phage displaying the peptide to normal bone marrow” value was “bind”.
In the case of VSEDIYDA [E11 12-8B], the “binding … to AML cells” value in assay [3] was “bind”. For the same sequence, the “binding of phage displaying the peptide to cord blood cells” value in assay [7] is listed as “bind”. In addition, the “binding of phage displaying the peptide to CML cells” value in assay [5] is “bind”.
